The compounds below were run against T1, human Nav1.8 (Homo sapiens, UniProt Q9Y5Y9) (assay: Nav1.8 sodium channels assay, QPatch 48 HTX electrophysiology in HEK293-Nav1.8 cells). Settings: at least one set of experimental runs; read-out: average pIC50 value against Nav1.8 (converted).
T1 construct: expressed in transfected cells; host or cells: HEK293 (HEK293-Nav1.8)
Assay type: cell-based
Outline: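 IC50 came from 6-8 point curves of P2 current amplitude, normalized to baseline and a positive reference, and corrected for run-down using vehicle-only wells. Automated patch clamp used HEK293-Nav1.8 (with Navβ1 and TREK1) at pH 7.4 outside and CsF-based solution inside. An 8 s inactivating step at −46 mV preceded the 0 mV test pulse, repeated at 0.07 Hz.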

T1 sequence (Q9Y5Y9 whole entry): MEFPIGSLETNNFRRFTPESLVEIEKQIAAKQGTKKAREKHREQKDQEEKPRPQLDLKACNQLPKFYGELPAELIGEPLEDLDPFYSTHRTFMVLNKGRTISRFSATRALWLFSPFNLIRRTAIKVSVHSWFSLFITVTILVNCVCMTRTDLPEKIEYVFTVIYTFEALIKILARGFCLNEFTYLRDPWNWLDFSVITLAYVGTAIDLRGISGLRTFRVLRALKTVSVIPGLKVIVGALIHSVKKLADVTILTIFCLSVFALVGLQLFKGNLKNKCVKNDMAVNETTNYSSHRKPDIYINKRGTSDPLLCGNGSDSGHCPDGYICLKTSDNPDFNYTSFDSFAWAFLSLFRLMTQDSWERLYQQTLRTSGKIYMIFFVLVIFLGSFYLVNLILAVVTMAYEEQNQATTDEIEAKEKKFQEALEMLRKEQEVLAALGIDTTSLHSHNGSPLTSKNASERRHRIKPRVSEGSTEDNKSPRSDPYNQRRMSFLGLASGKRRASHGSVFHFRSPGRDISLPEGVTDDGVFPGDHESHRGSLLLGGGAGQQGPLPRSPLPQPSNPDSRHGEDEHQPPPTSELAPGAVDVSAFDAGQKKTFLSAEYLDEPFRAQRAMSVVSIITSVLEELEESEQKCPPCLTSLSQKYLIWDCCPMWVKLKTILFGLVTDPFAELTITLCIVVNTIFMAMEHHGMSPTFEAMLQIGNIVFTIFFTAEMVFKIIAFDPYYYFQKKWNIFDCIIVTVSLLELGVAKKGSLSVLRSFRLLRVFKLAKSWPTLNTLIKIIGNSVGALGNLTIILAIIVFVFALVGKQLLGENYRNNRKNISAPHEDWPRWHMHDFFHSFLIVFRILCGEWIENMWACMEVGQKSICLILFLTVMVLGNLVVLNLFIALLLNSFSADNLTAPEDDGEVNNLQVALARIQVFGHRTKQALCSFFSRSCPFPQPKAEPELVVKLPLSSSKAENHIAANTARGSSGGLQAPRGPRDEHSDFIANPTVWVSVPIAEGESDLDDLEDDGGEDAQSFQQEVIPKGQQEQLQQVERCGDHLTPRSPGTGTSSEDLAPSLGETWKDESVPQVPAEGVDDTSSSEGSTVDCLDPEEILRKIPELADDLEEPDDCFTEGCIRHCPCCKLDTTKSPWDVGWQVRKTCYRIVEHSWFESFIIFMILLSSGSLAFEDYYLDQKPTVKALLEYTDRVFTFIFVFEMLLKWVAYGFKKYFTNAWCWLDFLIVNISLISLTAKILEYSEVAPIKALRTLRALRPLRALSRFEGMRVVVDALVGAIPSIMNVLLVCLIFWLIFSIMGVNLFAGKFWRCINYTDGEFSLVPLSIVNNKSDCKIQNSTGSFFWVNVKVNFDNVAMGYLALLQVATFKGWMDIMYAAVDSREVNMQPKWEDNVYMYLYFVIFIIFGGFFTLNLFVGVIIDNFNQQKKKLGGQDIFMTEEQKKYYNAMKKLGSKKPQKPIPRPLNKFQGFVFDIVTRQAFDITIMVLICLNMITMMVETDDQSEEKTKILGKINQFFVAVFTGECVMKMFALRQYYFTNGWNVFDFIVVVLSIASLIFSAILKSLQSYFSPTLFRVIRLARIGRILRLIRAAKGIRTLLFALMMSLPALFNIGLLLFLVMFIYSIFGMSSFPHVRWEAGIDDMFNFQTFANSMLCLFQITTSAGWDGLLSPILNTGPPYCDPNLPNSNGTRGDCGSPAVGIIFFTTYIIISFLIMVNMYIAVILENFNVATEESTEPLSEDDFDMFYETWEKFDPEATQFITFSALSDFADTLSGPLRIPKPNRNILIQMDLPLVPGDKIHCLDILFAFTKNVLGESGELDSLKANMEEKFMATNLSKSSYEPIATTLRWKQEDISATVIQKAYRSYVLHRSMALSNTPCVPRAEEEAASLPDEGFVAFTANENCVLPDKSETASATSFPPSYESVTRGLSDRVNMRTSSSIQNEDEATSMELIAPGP
T1 sequence (Q07699 19-218 partner): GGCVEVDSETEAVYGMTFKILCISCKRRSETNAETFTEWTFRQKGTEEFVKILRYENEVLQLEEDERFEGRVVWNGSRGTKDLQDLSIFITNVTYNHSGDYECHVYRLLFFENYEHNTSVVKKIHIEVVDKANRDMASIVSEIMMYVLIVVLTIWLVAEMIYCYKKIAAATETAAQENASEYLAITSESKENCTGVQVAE

Compared with `Cc1[nH]c(=O)ccc1N1CN(c2ccc(F)c(C#N)c2C)c2ccc(C(F)(F)F)cc2C1=O` [Example 140, 6-fluoro-2-methyl-3-(3-(2-methyl-6-oxo-1,6-dihydropyridin-3-yl)-4-oxo-6-(trifluoromethyl)-3,4-dihydroquinazolin-1(2H)-yl)benzonitrile], `Cc1[nH]c(=O)ccc1N1CN(c2ccc(F)cc2Br)c2ccc(C(F)(F)F)cc2C1=O` [Example 142, 1-(2-bromo-4-fluorophenyl)-3-(2-methyl-6-oxo-1,6-dihydropyridin-3-yl)-6-(trifluoromethyl)-2,3-dihydroquinazolin-4(1H)-one] is lower in IC50: 126 to 631 nM for the first, no more than 100 nM for the second.

First: Cc1[nH]c(=O)ccc1N1CN(c2ccc(F)cc2C(C)C)c2ncc(F)cc2C1=O [Example 141, 6-fluoro-1-(4-fluoro-2-isopropylphenyl)-3-(2-methyl-6-oxo-1,6-dihydropyridin-3-yl)-2,3-dihydropyrido[2,3-d]pyrimidin-4(1H)-one]
Second: Cc1[nH]c(=O)ccc1N1CN(c2ccc(F)cc2C(C)C)c2cc(F)c(F)cc2C1=O [Example 159, 6,7-difluoro-1-(4-fluoro-2-isopropylphenyl)-3-(2-methyl-6-oxo-1,6-dihydropyridin-3-yl)-2,3-dihydroquinazolin-4(1H)-one]
The IC50 of the first is higher: 126 to 631 nM for the first, no more than 100 nM for the second.

`Cc1cc(F)ccc1N1CN(c2ccc(=O)[nH]c2C)C(=O)c2cc(F)ccc21` [Example 143, 6-fluoro-1-(4-fluoro-2-methylphenyl)-3-(2-methyl-6-oxo-1,6-dihydropyridin-3-yl)-2,3-dihydroquinazolin-4(1H)-one] and `Cc1cc(F)ccc1N1CN(c2ccc(=O)[nH]c2C)C(=O)c2ccc(Br)cc21` [Example 152, 7-bromo-1-(4-fluoro-2-methylphenyl)-3-(2-methyl-6-oxo-1,6-dihydropyridin-3-yl)-2,3-dihydroquinazolin-4(1H)-one] cannot be ordered by IC50: no more than 100 nM for the first, no more than 100 nM for the second.

`O=C1c2ccc(C(F)(F)F)cc2N(c2ccc(F)cc2)CN1c1ccc(=O)[nH]c1` [Example 144, 1-(4-Fluorophenyl)-3-(6-oxo-1,6-dihydropyridin-3-yl)-7-(trifluoromethyl)-2,3-dihydroquinazolin-4(1H)-one] and `Cc1[nH]c(=O)ccc1N1CN(c2ccc(F)cc2)c2cc(C(F)(F)F)ccc2C1=O` [Example 147, 1-(4-fluorophenyl)-3-(2-methyl-6-oxo-1,6-dihydropyridin-3-yl)-7-(trifluoromethyl)-2,3-dihydroquinazolin-4(1H)-one] fall in the same range of IC50: 126 to 631 nM for the first, 126 to 631 nM for the second.

`Cc1cc(F)ccc1N1CN(c2cnc(=O)[nH]c2)C(=O)c2ccc(C(F)(F)F)cc21` [Example 145, 1-(4-fluoro-2-methylphenyl)-3-(2-oxo-1,2-dihydropyrimidin-5-yl)-7-(trifluoromethyl)-2,3-dihydroquinazolin-4(1H)-one] and `Cc1cc(F)ccc1N1CN(c2cc[nH]c(=O)c2)C(=O)c2ccc(C(F)(F)F)cc21` [Example 157, 1-(4-fluoro-2-methylphenyl)-3-(2-oxo-1,2-dihydropyridin-4-yl)-7-(trifluoromethyl)-2,3-dihydroquinazolin-4(1H)-one] fall in the same range of IC50: 126 to 631 nM for the first, 126 to 631 nM for the second.

First: Cc1cc(Br)ccc1N1CN(c2ccc(=O)[nH]c2)C(=O)c2ccc(C(F)(F)F)cc21 [Example 146, 1-(4-bromo-2-methylphenyl)-3-(6-oxo-1,6-dihydropyridin-3-yl)-7-(trifluoromethyl)-2,3-dihydroquinazolin-4(1H)-one]
Second: Cc1cc(F)ccc1N1CN(c2ccc(=O)[nH]c2Cl)C(=O)c2ccc(C(F)(F)F)cc21 [Example 151, 3-(2-chloro-6-oxo-1,6-dihydropyridin-3-yl)-1-(4-fluoro-2-methylphenyl)-7-(trifluoromethyl)-2,3-dihydroquinazolin-4(1H)-one]
The IC50 of the first is lower: 126 to 631 nM for the first, 794 to 7940 nM for the second.

`Cc1cc(C#N)ccc1N1CN(c2ccc(=O)[nH]c2C)C(=O)c2ccc(C(F)(F)F)cc21` [Example 148, 3-methyl-4-(3-(2-methyl-6-oxo-1,6-dihydropyridin-3-yl)-4-oxo-7-(trifluoromethyl)-3,4-dihydroquinazolin-1(2H)-yl)benzonitrile] and `Cc1cc(F)ccc1N1CN(c2ccc(=O)[nH]c2C)C(=O)c2ccc(C#N)cc21` [Example 153, 1-(4-fluoro-2-methylphenyl)-3-(2-methyl-6-oxo-1,6-dihydropyridin-3-yl)-4-oxo-1,2,3,4-tetra-hydroquinazoline-7-carbonitrile] cannot be ordered by IC50: no more than 100 nM for the first, no more than 100 nM for the second.

`Cc1cc(F)ccc1N1CN(c2ccc(=O)[nH]c2C)C(=O)c2ccc(C(F)(F)F)nc21` [Example 149, 1-(4-fluoro-2-methylphenyl)-3-(2-methyl-6-oxo-1,6-dihydropyridin-3-yl)-7-(trifluoromethyl)-2,3-dihydropyrido[2,3-d]pyrimidin-4(1H)-one] and `Cc1[nH]c(=O)ccc1N1CN(c2ccc(F)cc2F)c2cc(C(F)(F)F)ccc2C1=O` [Example 155, 1-(2,4-difluorophenyl)-3-(2-methyl-6-oxo-1,6-dihydropyridin-3-yl)-7-(trifluoromethyl)-2,3-dihydroquinazolin-4(1H)-one] fall in the same range of IC50: 126 to 631 nM for the first, 126 to 631 nM for the second.

First: CCc1[nH]c(=O)ccc1N1CN(c2ccc(F)cc2C)c2cc(C(F)(F)F)ccc2C1=O [Example 150, 3-(2-ethyl-6-oxo-1,6-dihydropyridin-3-yl)-1-(4-fluoro-2-methylphenyl)-7-(trifluoromethyl)-2,3-dihydroquinazolin-4(1H)-one]
Second: Cc1cc(F)ccc1N1CN(c2ccc(=O)[nH]c2C#N)C(=O)c2ccc(C(F)(F)F)cc21 [Example 154, 3-(1-(4-fluoro-2-methylphenyl)-4-oxo-7-(trifluoromethyl)-1,4-dihydroquinazolin-3(2H)-yl)-6-oxo-1,6-dihydropyridine-2-carbonitrile]
The IC50 of the first is lower: no more than 100 nM for the first, 126 to 631 nM for the second.

Compared with `CCOc1ccc(N2CN(c3ccc(=O)[nH]c3C)C(=O)c3ccc(C(F)(F)F)cc32)cc1` [Example 156, 1-(4-ethoxyphenyl)-3-(2-methyl-6-oxo-1,6-dihydropyridin-3-yl)-7-(trifluoromethyl)-2,3-dihydroquinazolin-4(1H)-one], `Cc1[nH]c(=O)ccc1N1CN([C@H]2CCCC[C@H]2C)c2cc(C(F)(F)F)ccc2C1=O` [Example 160, 3-(2-methyl-6-oxo-1,6-dihydropyridin-3-yl)-1-((1S,2R)-2-methylcyclohexyl)-7-(trifluoromethyl)-2,3-dihydroquinazolin-4(1H)-one] is lower in IC50: 126 to 631 nM for the first, no more than 100 nM for the second.

`Cc1cc(F)ccc1N1CN(c2ccc(=O)[nH]c2C)C(=O)c2cc(F)c(F)cc21` [Example 158, 6,7-difluoro-1-(4-fluoro-2-methylphenyl)-3-(2-methyl-6-oxo-1,6-dihydropyridin-3-yl)-2,3-dihydroquinazolin-4(1H)-one] and `Cc1cc(F)ccc1N1CN(c2ccc(=O)[nH]c2C)C(=O)c2cc(Cl)c(C(F)F)cc21` [Example 168, 6-chloro-7-(difluoromethyl)-1-(4-fluoro-2-methylphenyl)-3-(2-methyl-6-oxo-1,6-dihydropyridin-3-yl)-2,3-dihydroquinazolin-4(1H)-one] cannot be ordered by IC50: no more than 100 nM for the first, no more than 100 nM for the second.

`Cc1[nH]c(=O)ccc1N1CN(c2ccc(F)cc2C(C)C)c2cc(C#N)ccc2C1=O` [Example 161, 1-(4-fluoro-2-isopropylphenyl)-3-(2-methyl-6-oxo-1,6-dihydropyridin-3-yl)-4-oxo-1,2,3,4-tetra-hydroquinazoline-7-carbonitrile] and `Cc1cc(F)ccc1N1CN(c2ccc(=O)[nH]c2C)C(=O)c2cc(C#N)c(C(F)(F)F)cc21` [Example 166, 1-(4-fluoro-2-methylphenyl)-3-(2-methyl-6-oxo-1,6-dihydropyridin-3-yl)-4-oxo-7-(trifluoromethyl)-1,2,3,4-tetra-hydroquinazoline-6-carbonitrile] cannot be ordered by IC50: no more than 100 nM for the first, no more than 100 nM for the second.

Compared with `Cc1[nH]c(=O)ccc1N1CN([C@@H]2CCCC[C@@H]2C)c2cc(C(F)(F)F)ccc2C1=O` [Example 162, 3-(2-methyl-6-oxo-1,6-dihydropyridin-3-yl)-1-((1R,2S)-2-methylcyclohexyl)-7-(trifluoromethyl)-2,3-dihydroquinazolin-4(1H)-one], `Cc1cc(F)ccc1N1CN(c2ccc(=O)[nH]c2Br)C(=O)c2cc(C(F)(F)F)ccc21` [Example 164, 3-(2-bromo-6-oxo-1,6-dihydropyridin-3-yl)-1-(4-fluoro-2-methylphenyl)-6-(trifluoromethyl)-2,3-dihydroquinazolin-4(1H)-one] is higher in IC50: no more than 100 nM for the first, 126 to 631 nM for the second.

First: CC(=O)Nc1[nH]c(=O)ccc1N1CN(c2ccc(F)cc2C)c2ccc(C(F)(F)F)cc2C1=O [Example 163, N-(3-(1-(4-fluoro-2-methylphenyl)-4-oxo-6-(trifluoromethyl)-1,4-dihydroquinazolin-3(2H)-yl)-6-oxo-1,6-dihydropyridin-2-yl)acetamide]
Second: Cc1cc(F)ccc1N1CN(c2c[nH]c(=O)nc2N)C(=O)c2cc(C(F)(F)F)ccc21 [Example 169, 3-(4-amino-2-oxo-1,2-dihydropyrimidin-5-yl)-1-(4-fluoro-2-methylphenyl)-6-(trifluoromethyl)-2,3-dihydroquinazolin-4(1H)-one]
The IC50 of the first is higher: 794 to 7940 nM for the first, 126 to 631 nM for the second.

First: COc1nc2c(cc1F)C(=O)N(c1ccc(=O)[nH]c1C)CN2c1ccc(F)cc1C [Example 165, 6-fluoro-1-(4-fluoro-2-methylphenyl)-7-methoxy-3-(2-methyl-6-oxo-1,6-dihydropyridin-3-yl)-2,3-dihydropyrido[2,3-d]pyrimidin-4(1H)-one]
Second: Cc1cc(F)ccc1N1CN(c2ccc(=O)[nH]c2C)C(=O)c2cc(Cl)c(OC(F)F)cc21 [Example 167, 6-chloro-7-(difluoromethoxy)-1-(4-fluoro-2-methylphenyl)-3-(2-methyl-6-oxo-1,6-dihydropyridin-3-yl)-2,3-dihydroquinazolin-4(1H)-one]
The IC50 of the first is higher: 126 to 631 nM for the first, no more than 100 nM for the second.

From patent US20230103791A1 (GLAXOSMITHKLINE INTELLECTUAL PROPERTY DEVELOPMENT LIMITED, priority 2019, published 2023)
